Assay results: patent US8685949B2, “Use of 25-hydroxy vitamin D3 to improve vitality of animals” (DSM IP Assets B.V., priority 2005, dated 2014)

How the values were obtained:
[1] = tested on: replacement gilts (Landrace×Large White) / parity-one sows; test: Reproductive performance of parity-one sows fed 25-hydroxy-vitamin D3 (Experiment 2); type: in vivo, pig
Text: (§1) In another commercial pig farm a total of 43 six-month-old replacement gilts (Landrace×Large White) were selected. There were two dietary treatments in different stages of the reproductive cycle (replacement gilt development, gestation, lactation). The control diet was the standard farm diet without the supplementation of 25-hydroxy-vitamin D3. The experimental diet was the standard farm diet supplemented with 25-hydroxy-vitamin D3 at 50 mcg per kg diet.
(§2) Twenty-two (22) gilts were randomly selected and assigned to the control group and the other 21 gilts to the ROVIMIX® Hy•D® 1.25% group. Breeding started when the gilts were 7 months old. They were placed in the gestating stalls after breeding and remained there until 14 days before the expected date of farrowing. They were then weighed and moved to the farrowing stalls. Piglets were weaned at 28 days of age.
(§3) The following data were collected in the farrowing stalls in Experiments 1 and 2: • 1. Litter size at birth • a. Total pigs born • b. Pigs born alive • c. Stillborn pigs • d. Mummified fetuses • 2. Pig weight at birth • 3. Litter size at weaning • 4. Mortality • 5. Pig weight at weaning

[2] = tested on: replacement gilts (Landrace×Large White) / parity-one sows; test: Reproductive performance of parity-one sows fed 25-hydroxy-vitamin D3 (Experiment 1); type: in vivo, pig
Text: as §1, with “a” for “another”, “27” for “43”
as §2, with “Fourteen (14)” for “Twenty-two (22)”, “13” for “21”
as §3

[3] = 50 mcg per kg diet, 28-day weaning

C=C1CC[C@H](O)C/C1=C/C=C1\CCC[C@]2(C)[C@@H]([C@H](C)CCCC(C)(C)O)CC[C@@H]12 [25-hydroxy-vitamin D3]
LSBA = Litter size of number of pigs born alive ([1]; 50 mcg per kg diet): 9.62
LSW = Litter size of number of pigs weaned at 28-day weaning [1, 3]: 8.48
Difference in litter size at weaning vs. control ([1]; treated minus control): +0.66
Difference in pigs born alive vs. control ([1]; treated minus control): +0.44
BWT = Body weight of pigs at birth ([2]; 50 mcg per kg diet): 1.45 kg
LSBA = Litter size of number of pigs born alive ([2]; 50 mcg per kg diet): 9.77
LSW = Litter size of number of pigs weaned at 28-day weaning [2, 3]: 9.46
Piglet weight gain at 28-day weaning ([2]; birth to 28-day weaning, control 5.33 kg): 5.5 kg
Weaning weights compared with control ([2]; result in words): not different from each other
LSBT = Litter size of total number of pigs at birth ([2]; standard farm diet supplemented with 25-hydroxy-vitamin D3 at 50 mcg per kg diet, gilt development, gestation, lactation): 10.46
Difference in litter size at weaning vs. control ([2]; treated minus control): +1.82
Difference in pigs born alive vs. control ([2]; treated minus control): +1.84
Difference in total pigs born vs. control ([2]; treated minus control): +1.46
